From patent US11110082B2, “Tyrosine kinase inhibitors” (Rigel Pharmaceuticals, Inc., priority 2016, dated 2021)

Target: T1, MerTK (Homo sapiens, UniProt Q12866)
T1 construct: Seed HUVECs (10K cells/well) in EBM-2 complete media; host or cells: HUVEC (primary human umbilical vein endothelial cells)
T1 sequence (Q12866 21-999): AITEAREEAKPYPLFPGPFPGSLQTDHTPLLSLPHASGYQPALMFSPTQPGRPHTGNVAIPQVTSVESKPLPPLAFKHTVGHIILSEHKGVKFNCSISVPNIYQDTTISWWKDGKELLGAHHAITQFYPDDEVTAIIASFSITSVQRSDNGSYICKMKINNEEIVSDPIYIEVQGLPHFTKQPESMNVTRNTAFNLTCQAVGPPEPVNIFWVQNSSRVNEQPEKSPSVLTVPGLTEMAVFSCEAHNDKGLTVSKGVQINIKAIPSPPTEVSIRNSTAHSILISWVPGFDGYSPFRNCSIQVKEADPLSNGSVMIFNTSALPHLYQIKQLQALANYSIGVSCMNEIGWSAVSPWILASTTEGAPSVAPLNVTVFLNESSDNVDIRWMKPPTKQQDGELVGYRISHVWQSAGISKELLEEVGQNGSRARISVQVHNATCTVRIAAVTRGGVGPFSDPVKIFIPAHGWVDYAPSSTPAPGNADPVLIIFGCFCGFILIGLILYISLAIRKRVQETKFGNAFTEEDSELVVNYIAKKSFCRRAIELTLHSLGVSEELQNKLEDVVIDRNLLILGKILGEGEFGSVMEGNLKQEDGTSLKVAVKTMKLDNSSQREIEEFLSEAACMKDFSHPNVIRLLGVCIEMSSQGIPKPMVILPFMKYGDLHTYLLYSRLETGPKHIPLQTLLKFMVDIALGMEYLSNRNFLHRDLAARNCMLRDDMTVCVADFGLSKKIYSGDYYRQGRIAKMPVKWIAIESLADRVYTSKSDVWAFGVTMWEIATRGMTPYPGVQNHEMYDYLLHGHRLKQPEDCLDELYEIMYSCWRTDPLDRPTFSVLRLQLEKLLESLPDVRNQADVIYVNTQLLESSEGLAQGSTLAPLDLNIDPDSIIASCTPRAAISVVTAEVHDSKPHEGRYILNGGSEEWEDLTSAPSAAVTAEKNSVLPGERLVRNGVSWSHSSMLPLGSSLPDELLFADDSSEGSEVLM
Experiment: PAKT HTRF-HUVEC assay (pAkt Ser473 HTRF after anti-human MerTK-XL stimulation)
Assay type: cell-based
Details: HUVEC cells, 1 hour compound, stimulated with anti-human MerTK-XL 1 ug/mL for 10 minutes, read-out: inhibition of MerTK
Protocol: Example 4: PAKT HTRF-HUVEC Assay Phospho Akt (Ser473) Assay kit-10,000 tests (Cisbio US, 64[…]) HUVEC cells (Lonza, CC-2519) Anti-human MerTK antibody (Clone 125518) (R&D Systems, MAB8912) Method Seed HUVECs (10K cells/well) in EBM-2 complete media (EBM-2 basal medium plus EGM-2 BulletKit supplements) overnight at 37° C., 5% CO2 in Costar 96-well white clear-bottom plates. Remove culture media and starve cells for 3-4 hours in 50 μL/well EBM-2 basal medium. Perform serial dilution of compounds in DMSO from 2.5 mM in 4-fold dilutions, and then dilute 1:125 in EBM-2 basal media. Mix 50 μL/well 2x compounds with 50 μL/well HUVECs in duplicate in Costar 96-well white clear-bottom plates. Incubate plates for 1 hour at 37° C., 5% CO2. Cross-link anti-human MerTK antibody to Biotin-SP-conjugated anti-mouse IgG antibody (1:1) to give final concentrations of 5 ug/mL of anti-human MerTK-XL. Stimulate HUVECs with 25 μL/well 5x anti-human MerTK-XL to give final concentrations of 1 ug/mL for 10 minutes at 37° C., 5% CO2. Completely remove media and lyse HUVECs with 40 uL/WELL per well of Cisbio HTRF 1× lysis buffer. Performed pAkt(Ser473) HTRF assay in ProxiPlate-384 Plus, white 384-shallow well microplate according to the vendor protocol and read plates with a SpectralMax Paradigm plate reader. Enter the HTRF values into Athena (Rigel) for curve fitting, EC50 calculation, and database storage.

Row | Compound | EC50
1 | C[C@]1(O)CC[C@H](n2c(=O)c3ccccc3c3cnc(NCC4CCC4)nc32)CC1 [Compound 123, trans-3-((Cyclobutylmethyl)amino)-5-(4-hydroxy-4-methylcyclohexyl)pyrimido [4,5-c]isoquinolin-6(5H)-one] | 76.5 nM
2 | CCCCNc1ncc2c3ccc(N4CCNCC4)cc3c(=O)n([C@H]3CC[C@H](O)CC3)c2n1 [Compound 83, trans-3-(Butylamino)-5-(4-hydroxycyclohexyl)-8-(piperazin-1-yl)pyrimido[4,5-c]isoquinolin-6(5H)-one] | 31.8 nM
3 | C[C@]1(O)CC[C@H](n2c(=O)c3cc(CN4CCOCC4)ccc3c3cnc(NCC4CC4)nc32)CC1 [Compound 46, trans-3-((Cyclopropylmethyl)amino)-5-(4-hydroxy-4-methylcyclohexyl)-8-(morpholinomethyl)pyrimido [4,5-c]isoquinolin-6(5H)-one] | 116 nM
4 | CCC(F)(F)CNc1ncc2c3ccc(CN4CCN(c5ccncc5)CC4)cc3c(=O)n([C@H]3CC[C@H](O)CC3)c2n1 [Compound 221, trans-3-((2,2-Difluorobutyl)amino)-5-(4-hydroxycyclohexyl)-8-((4-(pyridin-4-yl)piperazin-1-yl)methyl)pyrimido[4,5-c]isoquinolin-6(5H)-one] | 86.1 nM
5 | CCC1(CNc2ncc3c4ccc(N5CCN(C)CC5)cc4c(=O)n([C@H]4CC[C@H](O)CC4)c3n2)CC1 [Compound 94, trans-3-(((1-Ethylcyclopropyl)methyl)amino)-5-(4-hydroxycyclohexyl)-8-(4-methylpiperazin-1-yl)pyrimido[4,5-c]isoquinolin-6(5H)-one] | 1100 nM
6 | CCCCNc1ncc2c3ccc(CN4CCN(C)CC4)cc3c(=O)n([C@H]3CC[C@H](NC(=N)N)C3)c2n1 [Compound 239, 1-((1S,3 S)-3-(3-(butylamino)-8-((4-methylpiperazin-1-yl)methyl)-6-oxopyrimido[4,5-c]isoquinolin-5(6H)-yl)cyclopentyl)guanidine] | 947 nM
7 | O=c1c2cc(N3CCC(N4CCCC4)CC3)ccc2c2cnc(NCC3CC3)nc2n1[C@H]1CC[C@H](O)CC1 [Compound 158] | 94.8 nM
8 | CCCCNc1ncc2c3ccc(CN4CCN(C)CC4)cc3c(=O)n([C@H]3CC[C@H](C(=O)NC4COC4)CC3)c2n1 [Compound 140, trans-4-(3-(Butylamino)-8-((4-methylpiperazin-1-yl)methyl)-6-oxopyrimido[4,5-c]isoquinolin-5(6H)-yl)-N-(oxetan-3-yl)cyclohexane-1-carboxamide] | 147 nM
9 | CCCCNc1ncc2c3ccc(N4CCN5CCC[C@H]5C4)cc3c(=O)n([C@H]3CC[C@H](O)CC3)c2n1 [Compound 73, trans-3-(Butylamino)-8-((S)-hexahydropyrrolo[1,2-a]pyrazin-2(1H)-yl)-5-((1r,4S)-4-hydroxycyclohexyl)pyrimido [4,5-c]isoquinolin-6(5H)-one] | 21 nM
10 | CC1(O)CCC(n2c(=O)c3cc(CN4CCOCC4)ccc3c3cnc(NCC4CC4)nc32)CC1 (centres unmarked) [Compound 156] | 116 nM
11 | CCCCNc1ncc2c3ccc(CN4CCN(C)CC4)cc3c(=O)n([C@@H]3CC[C@@H](O)C3)c2n1 [Compound 235, 3-(butylamino)-5-((1R,3R)-3-hydroxycyclopentyl)-8-((4-methylpiperazin-1-yl)methyl)pyrimido[4,5-c]isoquinolin-6(5H)-one] | 264 nM
12 | CCCCNc1ncc2c3ccc(CN4CCN(C)CC4)cc3c(=O)n([C@H]3CC[C@H](NCCO)C3)c2n1 [Compound 238, 3-(butylamino)-5-((1S,3S)-3-((2-hydroxyethyl)amino)cyclopentyl)-8-((4-methylpiperazin-1-yl)methyl)pyrimido[4,5-c]isoquinolin-6(5H)-one] | 160 nM
13 | C[C@]1(O)CC[C@H](n2c(=O)c3cc(CN4CCC(N5CCCC5)CC4)ccc3c3cnc(NCC4CC4)nc32)CC1 [Compound 38, trans-3-((Cyclopropylmethyl)amino)-5-(4-hydroxy-4-methylcyclohexyl)-8-((4-(pyrrolidin-1-yl)piperidin-1-yl)methyl)pyrimido[4,5-c]isoquinolin-6(5H)-one] | 33.3 nM
14 | O=c1c2ccccc2c2cnc(NCC3CC3)nc2n1[C@H]1CC[C@H](O)CC1 [Compound 114, trans-3-((Cyclopropylmethyl)amino)-5-(4-hydroxycyclohexyl)pyrimido [4,5-c]isoquinolin-6(5H)-one] | 743 nM
15 | CCCCNc1ncc2c3ccc(CN4CCOCC4)cc3c(=O)n([C@H]3CC[C@@H](O)CC3)c2n1 [Compound 4, cis-3-(Butylamino)-5-(4-hydroxycyclohexyl)-8-(morpholinomethyl)pyrimido [4,5-c]isoquinolin-6(5H)-one] | 174 nM

Further lines, results first:

Row | EC50 | Compound
16 | 144 nM | CN1CCN(Cc2ccc3c(c2)c(=O)n([C@H]2CC[C@H](O)CC2)c2nc(NC4CC(F)C4)ncc32)CC1 (stereo partly drawn) [Compound 13, trans-3-((3-Fluorocyclobutyl)amino)-5-(4-hydroxycyclohexyl)-8-((4-methylpiperazin-1-yl)methyl)pyrimido[4,5-c]isoquinolin-6(5H)-one]
17 | 21 nM | O=c1c2cc(CN3CCN(c4ccncc4)CC3)ccc2c2cnc(NC3CCC3)nc2n1[C@H]1CC[C@H](O)CC1 [Compound 225, trans-3-(Cyclobutylamino)-5-(4-hydroxycyclohexyl)-8-((4-(pyridin-4-yl)piperazin-1-yl)methyl)pyrimido[4,5-c]isoquinolin-6(5H)-one]
18 | 3.7 nM | CCC[C@H](C)Nc1ncc2c3ccc(CN4CCN(C(C)(C)C)CC4)cc3c(=O)n([C@H]3CC[C@H](O)CC3)c2n1 [Compound 215]
19 | 4.6 nM | CC(C)N1CCN(Cc2ccc3c(c2)c(=O)n([C@H]2CC[C@H](O)CC2)c2nc(NCC4CCC4)ncc32)CC1 [Compound 33, trans-3-((Cyclobutylmethyl)amino)-5-(4-hydroxycyclohexyl)-8-((4-isopropylpiperazin-1-yl)methyl)pyrimido[4,5-c]isoquinolin-6(5H)-one]
20 | 64.6 nM | O=c1c2cc(CN3CCn4ncnc4C3)ccc2c2cnc(NCC3CC3)nc2n1[C@H]1CC[C@H](O)CC1 [Compound 39, trans-3-((Cyclopropylmethyl)amino)-8-((5,6-dihydro-[1,2,4]triazolo[1,5-a]pyrazin-7(8H)-yl)methyl)-5-(4-hydroxycyclohexyl)pyrimido [4,5-c]isoquinolin-6(5H)-one]
21 | 292 nM | CN1CCN(Cc2ccc3c(c2)c(=O)n([C@H]2CC[C@H](OC(N)=O)CC2)c2nc(NCC4CC4)ncc32)CC1 [Compound 59, trans-4-(3-((Cyclopropylmethyl)amino)-8-((4-methylpiperazin-1-yl)methyl)-6-oxopyrimido[4,5-c]isoquinolin-5(6H)-yl)cyclohexyl carbamate]
22 | 46.7 nM | O=c1c2cc(CN3CCN(C4COC4)CC3)ccc2c2cnc(NCC3CC3)nc2n1[C@H]1CC[C@H](O)CC1 [Compound 147]
23 | 51.3 nM | O=c1c2cc(CN3CCN(CC(F)F)CC3)ccc2c2cnc(NCC3CC3)nc2n1[C@H]1CC[C@H](O)CC1 [Compound 153]
24 | 47.3 nM | O=c1c2cc(CN3CCCCC3)ccc2c2cnc(NCC3CC3)nc2n1[C@H]1CC[C@H](O)CC1 [Compound 202, trans-3-((Cyclopropylmethyl)amino)-5-(4-hydroxycyclohexyl)-8-(piperidin-1-ylmethyl)pyrimido[4,5-c]isoquinolin-6(5H)-one]
25 | 45.9 nM | CC(C)CCNc1ncc2c3ccc(CN4CCN(C)CC4)cc3c(=O)n([C@H]3CC[C@H](O)CC3)c2n1 [Compound 129]
26 | 33.3 nM | CC1(O)CCC(n2c(=O)c3cc(CN4CCC(N5CCCC5)CC4)ccc3c3cnc(NCC4CC4)nc32)CC1 (centres unmarked) [Compound 150]
